The values that follow are results of earlier work, collected in patent US10272130B1, “Oral anaerobic glutathione supplement in liposome suspension” (priority 2017, dated 2019).

For data set [1] the following is noted: in vivo.

On to `CC(=O)N[C@@H](CS)C(=O)O` [NAC, N-acetylcysteine], for which the pregnancy risk category result (in vivo) is on record as “category B”. Where the note is “orally administered or inhaled”, the “adverse effects associated with administration” value was “drowsiness, stomatitis, clamminess, rhinorrhea, and hemoptysis”. In addition, in data set [1], the half-life result is on record as “approximately 5.6 hours” and the “renally excreted by the body” value was 30%.
